Data from PubChem BioAssay AID2060358 (Molecular Pharmacology Branch, DTP, NCI, 2025).
Calls of active or inactive are those of the source. Rule for the calls: active = viability on the fitted dose curve at most 10% of control; inactive = the rest.

System: 254851-301-R-J1-PDC spheroids, viability % test/control
Assay: Anticancer human tumor 254851-301-R-J1-PDC patient-derived colon carcinoma cell line growth inhibition [TAK]
Settings: spheroids with HUVEC and MSC; for IC50: curve of first compound; for viability, T/C: stronger effect = lower value
Description: Combinatorial screen of targeted agents with TAK-243 and ipatasertib in multi-cell type tumor spheroids
A high-throughput screen of multi-cell type tumor spheroids was designed to identify active combinations of targeted small molecules and TAK-243 or ipatasertib. Complex spheroids include a stromal component modeled by human endothelial cells (HUVEC) and fibroblasts modeled by human mesenchymal stem cells (MSCs). The concentration ranges selected for each drug and investigational agent were based upon clinically achievable concentrations if the clinical Cmax of the agent was known.
Compounds. The drugs and investigational agents: TAK-243 (785004), ipatasertib (767898), everolimus (733504), selumetinib (741078), bortezomib (756655), trametinib (758246), ixazomib (758254), vemurafenib (761431), dabrafenib (764134), sapanisertib (764658), alpelisib (765974), and copanlisib (816437), were obtained from the National Cancer Institute (NCI) Developmental Therapeutics Program Chemical Repository. The FDA-approved anticancer drug set is available from the NCI Developmental Therapeutics Program. […] The stock solutions were prepared in dimethyl sulfoxide (DMSO, Sigma-Aldrich, St. Louis, MO, cat. D2650) at 800-fold the tested concentration and stored at -70 degrees C prior to their use. All drugs and investigational agents were tested over a range starting from a high concentration at or near the clinical Cmax and decreasing in half-log increments. If the clinical Cmax for an agent had not been determined, the highest concentration tested was 10 microM.
NCI60 Cell Culture. NCI60 cell lines were obtained from the NCI Developmental Therapeutics Program Tumor Repository. For each lot of cells, the Repository performed Applied Biosystems AmpFLSTR Identifiler testing with PCR amplification to confirm consistency with the published Identifier STR profile for each cell line. Cells were kept in continuous culture for no more than 20 passages. The optimal seeding densities for each of the cell lines at each time point assessed were determined prior to performing the concentration response studies. Briefly, the NCI60 human tumor lines were grown as monolayers in RPMI 1640 medium supplemented with 10% FBS and 2 mmol/L L-glutamine.
An additional 2 lines were from the NCI60 cell line panel including melanomas, MALME-3M and SK-MEL-2. Pooled donor human umbilical vein endothelial cells (HUVEC, Lonza, cat. CC-2519) and human mesenchymal stem cells (hMSC, Lonza, cat. PT-2501) were purchased from Lonza (Walkersville, MD).
PDMR cell lines were grown in complete medium (DC medium): Dulbecco's modified Eagle's medium (DMEM)/F12 supplemented with 5% fetal bovine serum (FBS), 2 mM L-glutamine, 100 U/mL penicillin and 100 µg/ml streptomycin, 0.4 µg/ml hydrocortisone, 10 ng/ml epidermal growth factor (EGF) recombinant human protein, 24 µg/mL adenine, and 0.1 mg/mL primocin. During culture from frozen stock vials, PDMR cells were cultured in the same medium containing 10 µM Y-27632 (see Table 3). The PDCs were cultured in complete DMEM/F12 media without 10 microM Y-27632 dihydrochloride for at least two passages prior to the screen. The pooled donor HUVEC and hMSC were cultured in endothelial cell growth medium 2 (PromoCell, Heidelberg, Germany, cat. C-22011) and mesenchymal stem cell growth medium 2 (PromoCell, cat. C-28009), respectively. For all experiments, HUVEC and hMSC were used at passages </=5.
For the pre-screen, cell seeding densities were determined from a titration spanning the range from 5,000 to 313 cells per well. The mct-spheroids including 60% malignant cells, 25% HUVEC and 15% MSC dispensed as a mixture into U-bottom Ultra-Low Attachment 384-well plates (Corning, NY)
High-throughput Drug Combination Screening.
Prior to their inoculation into 384-well plates, malignant cells, HUVEC, and hMSC were removed from T flasks using TrypLE express (Thermo Fisher Scientific, cat. 12605036) and harvested by centrifugation for 5 min at 233 x g. […]
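Throughout, for IC50: spheroids exposed to drugs for seven days before viability readout.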
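Throughout, for viability, T/C: spheroids exposed to drugs for seven days before viability readout.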

## CC(=O)Nc1cccc(-n2c(=O)n(C3CC3)c(=O)c3c(Nc4ccc(I)cc4F)n(C)c(=O)c(C)c32)c1 + CC(C)NCC(C(=O)N1CCN(c2ncnc3c2C(C)CC3O)CC1)c1ccc(Cl)cc1
Second compound 0.3 µM
  IC50: 17.6 nM
Second compound 0.949 µM
  IC50: 17.6 nM
Second compound 3 µM
  IC50: 18.6 nM
Second compound 9.49 µM
  IC50: 17.3 nM
Second compound 30 µM
  IC50: 12.5 nM
Second compound 0.3 µM, first compound 94.9 pM
  viability, T/C: 115%
Second compound 0.3 µM, first compound 0.0003 µM
  viability, T/C: 109%
Second compound 0.3 µM, first compound 0.000949 µM
  viability, T/C: 108%
Second compound 0.3 µM, first compound 0.003 µM
  viability, T/C: 116%
Second compound 0.3 µM, first compound 0.00949 µM
  viability, T/C: 95.7%
Second compound 0.3 µM, first compound 0.03 µM
  viability, T/C: 11%
Second compound 0.949 µM, first compound 94.9 pM
  viability, T/C: 111%
Second compound 0.949 µM, first compound 0.0003 µM
  viability, T/C: 110%
Second compound 0.949 µM, first compound 0.000949 µM
  viability, T/C: 111%
Second compound 0.949 µM, first compound 0.003 µM
  viability, T/C: 102%
Second compound 0.949 µM, first compound 0.00949 µM
  viability, T/C: 88.5%
Second compound 0.949 µM, first compound 0.03 µM
  viability, T/C: 17.4%
Second compound 3 µM, first compound 94.9 pM
  viability, T/C: 106%
Second compound 3 µM, first compound 0.0003 µM
  viability, T/C: 107%
Second compound 3 µM, first compound 0.000949 µM
  viability, T/C: 110%
Second compound 3 µM, first compound 0.003 µM
  viability, T/C: 116%
Second compound 3 µM, first compound 0.00949 µM
  outcome: inactive
Second compound 3 µM, first compound 0.03 µM
  viability, T/C: 9.28%
Second compound 9.49 µM, first compound 94.9 pM
  viability, T/C: 94.7%
Second compound 9.49 µM, first compound 0.0003 µM
  viability, T/C: 114%
Second compound 9.49 µM, first compound 0.000949 µM
  viability, T/C: 106%
Second compound 9.49 µM, first compound 0.003 µM
  viability, T/C: 108%
Second compound 9.49 µM, first compound 0.00949 µM
  viability, T/C: 97.7%
Second compound 9.49 µM, first compound 0.03 µM
  viability, T/C: 6.45%
Second compound 30 µM, first compound 94.9 pM
  viability, T/C: 81.1%
Second compound 30 µM, first compound 0.0003 µM
  viability, T/C: 96.6%
Second compound 30 µM, first compound 0.000949 µM
  viability, T/C: 97.3%
Second compound 30 µM, first compound 0.003 µM
  viability, T/C: 81.4%
Second compound 30 µM, first compound 0.00949 µM
  viability, T/C: 65.3%
Second compound 30 µM, first compound 0.03 µM
  viability, T/C: 2.95%

## CC(C)CC(NC(=O)C(Cc1ccccc1)NC(=O)c1cnccn1)B(O)O (stereo not given) + CC(C)NCC(C(=O)N1CCN(c2ncnc3c2C(C)CC3O)CC1)c1ccc(Cl)cc1
Second compound 0.3 µM
  IC50: > 10 nM
Second compound 0.949 µM
  IC50: > 10 nM
Second compound 3 µM
  IC50: > 10 nM
Second compound 9.49 µM
  IC50: > 10 nM
Second compound 30 µM
  IC50: > 10 nM
Second compound 0.3 µM, first compound 31.6 pM
  viability, T/C: 118%
Second compound 0.3 µM, first compound 0.0001 µM
  viability, T/C: 124%
Second compound 0.3 µM, first compound 0.000316 µM
  viability, T/C: 109%
Second compound 0.3 µM, first compound 0.001 µM
  viability, T/C: 112%
Second compound 0.3 µM, first compound 0.00316 µM
  viability, T/C: 103%
Second compound 0.3 µM, first compound 0.01 µM
  viability, T/C: 79.9%
Second compound 0.949 µM, first compound 31.6 pM
  viability, T/C: 112%
Second compound 0.949 µM, first compound 0.0001 µM
  viability, T/C: 114%
Second compound 0.949 µM, first compound 0.000316 µM
  viability, T/C: 101%
Second compound 0.949 µM, first compound 0.001 µM
  viability, T/C: 107%
Second compound 0.949 µM, first compound 0.00316 µM
  viability, T/C: 103%
Second compound 0.949 µM, first compound 0.01 µM
  viability, T/C: 87.9%
Second compound 3 µM, first compound 31.6 pM
  viability, T/C: 108%
Second compound 3 µM, first compound 0.0001 µM
  viability, T/C: 114%
Second compound 3 µM, first compound 0.000316 µM
  viability, T/C: 110%
Second compound 3 µM, first compound 0.001 µM
  viability, T/C: 109%
Second compound 3 µM, first compound 0.00316 µM
  viability, T/C: 111%
Second compound 3 µM, first compound 0.01 µM
  viability, T/C: 86.6%
Second compound 9.49 µM, first compound 31.6 pM
  viability, T/C: 106%
Second compound 9.49 µM, first compound 0.0001 µM
  viability, T/C: 110%
Second compound 9.49 µM, first compound 0.000316 µM
  viability, T/C: 112%
Second compound 9.49 µM, first compound 0.001 µM
  viability, T/C: 104%
Second compound 9.49 µM, first compound 0.00316 µM
  viability, T/C: 99%
Second compound 9.49 µM, first compound 0.01 µM
  viability, T/C: 81.4%
Second compound 30 µM, first compound 31.6 pM
  viability, T/C: 90.3%
Second compound 30 µM, first compound 0.0001 µM
  viability, T/C: 98.9%
Second compound 30 µM, first compound 0.000316 µM
  viability, T/C: 94.4%
Second compound 30 µM, first compound 0.001 µM
  viability, T/C: 89%
Second compound 30 µM, first compound 0.00316 µM
  viability, T/C: 85.7%
Second compound 30 µM, first compound 0.01 µM
  viability, T/C: 71%
